Results: PubChem BioAssay (NCI)
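In this assay, cells in 96-well plates receive the compound at five concentrations for 48 hours. Endpoints are linearly interpolated between the surrounding concentrations. The concentration for 50% growth inhibition is given as GI50. Definition used: TGI = concentration required for complete inhibition of growth.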

Experiments:
Experiment in all cases: NCI tumour cell line growth inhibition, 48 h
[1] = tested on: MALME-3M melanoma
[2] = tested on: LOX IMVI melanoma
[3] = tested on: IGROV1 ovarian
[4] = tested on: TK-10 renal
[5] = tested on: RPMI-8226 leukemia
[6] = tested on: NCI-H226 lung
[7] = tested on: HCT-116 colon

Row | SMILES | TGI [1] [µM] | TGI [2] [µM] | TGI [3] [µM] | TGI [4] [µM] | TGI [5] [µM] | TGI [6] [µM] | GI50 [1] [µM] | GI50 [7] [µM] | TGI [7] [µM] | GI50 [2] [µM] | GI50 [3] [µM] | GI50 [4] [µM] | GI50 [5] [µM] | GI50 [6] [µM]
1 | O=C(O)CSc1n[nH]c(-c2ccccc2)n1 | > 100 | > 100 | > 100 | > 100 | > 100 | > 100 |  |  |  |  |  |  |  | 
2 | COc1cccc(/C=N/[N-]C(=O)c2ccncc2)c1[O-].[Cu+2].[OH3+] | > 100 | > 100 | > 100 | > 100 | > 100 | > 100 | > 100 | 23.8 | 93.9 | > 100 | 38.7 | > 100 | > 100 | > 100
3 | CN(C)c1c([O-])c(=[N+](C)C)c1=O |  | > 100 | > 100 | > 100 |  | > 100 |  |  | > 100 |  |  |  |  | 
4 | Cc1ccc(Cn2c(C)nc3c2C(=O)c2ccccc2C3=O)cc1 | 34.3 | 6.18 | > 100 | 80.8 |  | 33.7 |  |  | 16.3 |  |  |  |  | 
5 | CC1=C2CCCC2=C/C(=N/Nc2ccc([N+](=O)[O-])cc2[N+](=O)[O-])CC1 | > 100 | > 100 | > 100 | > 100 | > 100 | > 100 |  |  | > 100 |  |  |  |  | 
6 | O=C1[C@@H]2C3c4ccccc4C([C@@H]2C(=O)N1c1ccccc1)S3(=O)=O | > 100 | > 100 | > 100 | > 100 | > 100 | > 100 |  |  | > 100 |  |  |  |  | 
7 | C[C@H]1NC(=O)C2CCCCN2C(=O)CN(C)C(=O)CNC(=O)C2CCCCN2C(=O)[C@@H](NC(=O)c2nc3ccccc3cc2O)[C@@H](C)NC(=O)C2CCCCN2C(=O)CN(C)C(=O)CNC(=O)[C@@H]2CCCCN2C(=O)C1NC(=O)c1nc2ccccc2cc1O (some centres not stated) | 0.388 | > 100 | > 100 | > 100 | 0.764 | 0.383 |  |  |  |  |  |  |  | 
8 | CC(=O)O[C@H]1CCC2[C@@H]3CCC4=C(O)c5nocc5C[C@]4(C)C3CC[C@@]21C (some centres not stated) | > 100 | > 100 | > 100 | > 100 | > 100 | > 100 |  |  | > 100 |  |  |  |  | 
9 | CCC1C2C=CC(CC2)N1S(=O)(=O)c1ccc(C)cc1 (configuration not stated) | 73.4 | 31.5 |  |  | 42.3 | 33.9 |  |  | > 100 |  |  |  |  | 
10 | Cc1ccc(NC(=O)C2C(=O)N(c3ccc(C)c(C)c3)C(=O)C2N=N)cc1C (configuration not stated) | > 100 |  | > 100 | > 100 |  | > 100 |  |  | > 100 |  |  |  |  | 
11 | O=C(CSc1nnc(-c2ccc(N=Cc3ccc(Cl)cc3)cc2)o1)Nc1ccc(Cl)cc1 | > 100 | > 100 |  | > 100 | > 100 | > 100 |  |  | > 100 |  |  |  |  | 
12 | CCOc1ccc(N2C(=O)/C(=C/c3ccc(N(CCC#N)CCC#N)cc3)N=C2c2cc([N+](=O)[O-])ccc2Cl)cc1 |  | 62.6 |  | > 100 | > 100 | > 100 |  |  | 39.5 |  |  |  |  | 
13 | O=C(O)[C@H](NS(=O)(=O)c1ccc2ccccc2c1)c1ccccc1 | > 100 | > 100 | > 100 |  | > 100 |  |  |  |  |  |  |  |  | 
14 | COc1ccc2oc(-c3cccnc3)cc(=O)c2c1 | > 100 | > 100 | > 100 |  | > 100 | > 100 |  |  | > 100 |  |  |  |  | 
15 | Cc1ccc(S(=O)(=O)N/N=C/c2oc(-c3ccncc3)c(-c3ccncc3)c2[N+](=O)[O-])cc1 | > 100 | > 100 | > 100 | > 100 |  | > 100 |  |  | > 100 |  |  |  |  | 
16 | O=C1CC(C[C@H](O)C2CCCCC2O)CC(=O)N1Cc1ccccc1 (some centres not stated) | > 100 | > 100 | > 100 | > 100 |  | > 100 |  |  | > 100 |  |  |  |  | 
17 | O=C(Nc1cc(Cl)ccc1Cl)c1cc2cccc(Cl)c2oc1=O | > 100 | > 100 | > 100 | > 100 | > 100 |  |  |  | > 100 |  |  |  |  | 
18 | CCOC(=O)NC(=O)c1cn(CCOC(=O)NCCCCCCNC(=O)OCCn2cc(C(=O)NC(=O)OCC)c(=O)[nH]c2=O)c(=O)[nH]c1=O | > 100 | > 100 | > 100 |  | > 100 | > 100 |  |  | > 100 |  |  |  |  | 
19 | COC1[C@@H](OC(C)=O)[C@@H](NC(=O)C(Cl)(Cl)Cl)C(I)[C@@H](N2C(=O)c3ccccc3C2=O)[C@H]1OC (some centres not stated) |  | > 100 | > 100 |  | > 100 | > 100 |  |  | > 100 |  |  |  |  | 
20 | c1ccc(SC2CCSc3ccccc3C2Sc2ccccc2)cc1 (configuration not stated) |  | > 100 |  | > 100 | > 100 | > 100 |  |  | > 100 |  |  |  |  | 
21 | CCOc1ccc2c(c1)[n+]([O-])c(-c1ccccc1Cl)c(N)[n+]2[O-] | > 100 |  | > 100 |  |  | > 100 |  |  | > 100 |  |  |  |  | 
